Holding throughout (type): cell-based
What all share (conditions): NIH-3T3 cells, ratio of maximal effect to that of standard full agonist brimonidine, NA = not active below 10 micromolar

For experiment [1], the target named is T1, alpha2C adrenergic receptors (Homo sapiens, UniProt P18825).
T1 construct: expressed in transfected cells; host or cells: NIH-3T3 cells
T1 sequence (P18825 1-462): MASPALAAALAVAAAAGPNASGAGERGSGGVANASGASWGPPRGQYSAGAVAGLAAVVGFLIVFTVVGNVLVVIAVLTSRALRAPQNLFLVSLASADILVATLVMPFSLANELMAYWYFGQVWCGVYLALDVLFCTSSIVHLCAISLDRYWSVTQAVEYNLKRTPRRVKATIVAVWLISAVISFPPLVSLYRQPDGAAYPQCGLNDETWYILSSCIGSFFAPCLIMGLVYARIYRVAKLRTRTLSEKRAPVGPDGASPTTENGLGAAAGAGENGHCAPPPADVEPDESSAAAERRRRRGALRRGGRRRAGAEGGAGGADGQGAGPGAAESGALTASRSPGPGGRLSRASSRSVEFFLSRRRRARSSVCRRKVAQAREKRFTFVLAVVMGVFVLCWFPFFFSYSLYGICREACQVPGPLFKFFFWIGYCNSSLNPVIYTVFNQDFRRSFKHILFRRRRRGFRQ
Nature of the experiment: RSAT assay (Receptor Selection and Amplification Technology), alpha2C. The text has this: (§1) The imidazole-2-thione compounds of the invention are agonists of alpha2 adrenergic receptors. Many compounds of the invention are specific or selective agonists of alpha2B and/or to a lesser extent alpha2C adrenergic receptors, in preference over alpha2A adrenergic receptors. […] 76, pp. 308-311 (incorporated herein by reference) and is also described below. Another reference pertinent to this assay is Conklin et al. (1993) Nature 363:274-6, Receptor Selection and Amplification Technology (RSAT) assay, also incorporated herein by reference.
(§2) The RSAT assay measures a receptor-mediated loss of contact inhibition that results in selective proliferation of receptor-containing cells in a mixed population of confluent cells. The increase in cell number is assessed with an appropriate transfected marker gene such as β-galactosidase, the activity of which can be easily measured in a 96-well format. Receptors that activate the G protein, Gq, elicit this response. Alpha2 receptors, which normally couple to Gi, activate the RSAT response when coexpressed with a hybrid Gq protein that has a Gi receptor recognition domain, called Gq/i5.
(§3) NIH-3T3 cells are plated at a density of 2×10^6 cells in 15 cm dishes and maintained in Dulbecco's modified Eagle's medium supplemented with 10% calf serum. One day later, cells are cotransfected by calcium phosphate precipitation with mammalian expression plasmids encoding p-SV-β-galactosidase (5-10 μg), receptor (1-2 μg) and G protein (1-2 μg). 40 μg salmon sperm DNA may also be included in the transfection mixture. Fresh media is added on the following day and 1-2 days later, cells are harvested and frozen in 50 assay aliquots. Cells are thawed and 100 μl added to 100 μl aliquots of various concentrations of drugs in triplicate in 96-well dishes. Incubations continue 72-96 hr at 37° C. After washing with phosphate-buffered saline, β-galactosidase enzyme activity is determined by adding 200 μl of the chromogenic substrate (consisting of 3.5 mM o-nitrophenyl-β-D-galactopyranoside and 0.5% nonidet P-40 in phosphate buffered saline), incubating overnight at 30° C. and measuring optical density at 420 nm. The absorbance is a measure of enzyme activity, which depends on cell number and reflects a receptor-mediated cell proliferation. The efficacy or intrinsic activity is calculated as a ratio of the maximal effect of the drug to the maximal effect of a standard full agonist for each receptor subtype. Brimonidine, also called UK14304, the chemical structure of which is shown below, is used as the standard agonist for the alpha2A, alpha2B and alpha2C receptors.
(§4) The results of the RSAT assay with several exemplary compounds of the invention are disclosed in Table 1 above together with the chemical formulas of these examplary compounds. NA stands for “not active” at cohcentrations less than 10 micromolar.

Experiment [2] concerns the target T2, alpha2A adrenergic receptors (Homo sapiens, UniProt P08913).
T2 construct: expressed in transfected cells; host or cells: NIH-3T3 cells
T2 sequence (P08913 1-465): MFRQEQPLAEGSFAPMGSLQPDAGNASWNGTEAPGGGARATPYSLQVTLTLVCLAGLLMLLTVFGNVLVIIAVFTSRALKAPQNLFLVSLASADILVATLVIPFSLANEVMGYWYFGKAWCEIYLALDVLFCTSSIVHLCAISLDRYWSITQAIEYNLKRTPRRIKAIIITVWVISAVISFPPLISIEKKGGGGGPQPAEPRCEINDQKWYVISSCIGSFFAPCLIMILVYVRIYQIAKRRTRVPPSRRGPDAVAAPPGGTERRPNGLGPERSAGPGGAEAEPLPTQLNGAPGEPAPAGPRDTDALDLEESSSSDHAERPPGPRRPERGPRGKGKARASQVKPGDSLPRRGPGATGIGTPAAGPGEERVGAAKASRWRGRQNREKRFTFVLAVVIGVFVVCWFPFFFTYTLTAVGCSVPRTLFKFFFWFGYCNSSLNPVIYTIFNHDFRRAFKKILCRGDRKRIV
Kind of experiment: RSAT assay (Receptor Selection and Amplification Technology), alpha2A.
From the text: as §1, §2, §3, §4

Experiment [3] deals with T3, alpha2B adrenergic receptors (Homo sapiens, UniProt P18089).
T3 construct: expressed in transfected cells; host or cells: NIH-3T3 cells
T3 sequence (P18089 1-450): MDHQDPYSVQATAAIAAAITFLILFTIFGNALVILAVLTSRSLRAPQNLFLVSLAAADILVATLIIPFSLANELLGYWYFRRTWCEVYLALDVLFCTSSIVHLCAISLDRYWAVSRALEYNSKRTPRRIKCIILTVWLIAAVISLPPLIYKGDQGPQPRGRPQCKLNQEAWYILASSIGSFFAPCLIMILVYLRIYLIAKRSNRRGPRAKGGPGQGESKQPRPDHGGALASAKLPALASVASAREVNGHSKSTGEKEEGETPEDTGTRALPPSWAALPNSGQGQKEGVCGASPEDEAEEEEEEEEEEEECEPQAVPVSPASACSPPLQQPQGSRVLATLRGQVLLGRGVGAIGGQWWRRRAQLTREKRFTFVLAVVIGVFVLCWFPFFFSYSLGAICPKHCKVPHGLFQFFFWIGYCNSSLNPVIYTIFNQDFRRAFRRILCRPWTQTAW
Nature of the experiment: RSAT assay (Receptor Selection and Amplification Technology), alpha2B.
From the text: as §1, §2, §3, §4

Turning to `CC(c1c[nH]c(=S)[nH]1)c1cccc2cccnc12` (stereo not drawn) [Compound 4, 4-(1-quinolin-8-yl-ethyl)-1,3-dihydro-imidazole-2-thione], the “Intrinsic Activity Alpha 2C” value in experiment [1] came to 0.62. Also, the “Intrinsic Activity Alpha 2A” value in experiment [2] stood at 0.80. In experiment [3], the “Intrinsic Activity Alpha 2B” value was 1.03.

Take `S=c1[nH]cc(Cc2ccc3c(c2)CCCS3)[nH]1` [Compound 13, 4-thiochroman-6-ylmethyl-1,3-dihydro-imidazole-2-thione]: the “Intrinsic Activity Alpha 2B” value in experiment [3] was 0.95.

Turning to `CC(c1c[nH]c(=S)[nH]1)c1cccc2c1OCCO2` (stereo not drawn) [Compound 2, 4-[1-(2,3-dihydro-benzo[1,4]dioxin-5-yl)-ethyl]-1,3-dihydro-imidazole-2-thione], in experiment [1], the “Intrinsic Activity Alpha 2C” value is reported as 0.48. Further, the “Intrinsic Activity Alpha 2A” value in experiment [2] was 0.45. The “Intrinsic Activity Alpha 2B” value in experiment [3] was found to be 1.38.

Take `S=c1[nH]cc(Cc2cccc3nsnc23)[nH]1` [Compound-16, 4-benzo[1,2,5]thiadiazol-4-ylmethyl-1,3-dihydro-imidazole-2-thione]: in experiment [1], the “Intrinsic Activity Alpha 2C” value amounted to 0.69. The “Intrinsic Activity Alpha 2B” value in experiment [3] amounted to 1.22.

With `S=c1[nH]cc(Cc2cccc3ccccc23)[nH]1` [Compound 6, 4-naphthalen-1-ylmethyl-1,3-dihydro-imidazole-2-thione], the “Intrinsic Activity Alpha 2C” value in experiment [1] is 0.55. Further, the “Intrinsic Activity Alpha 2A” value in experiment [2] was 0.48. For the same compound, the “Intrinsic Activity Alpha 2B” value in experiment [3] was found to be 0.73.

Take `CC(c1c[nH]c(=S)[nH]1)c1cccc2c1OCO2` (stereo not drawn) [Compound 3, 4-(1-benzo[1,3]dioxol-4-yl-ethyl)-1,3-dihydro-imidazole-2-thione]: the “Intrinsic Activity Alpha 2C” value in experiment [1] turned out to be 0.77. For the same compound, the “Intrinsic Activity Alpha 2A” value in experiment [2] is 0.56. Besides, the “Intrinsic Activity Alpha 2B” value in experiment [3] is recorded as 0.97.

As to `CC(c1ccc2c(c1)OCCO2)c1c[nH]c(=S)[nH]1` (stereo not drawn) [Compound 12, 4-[1-(2,3-dihydro-benzo[1,4]dioxin-6-yl)-ethyl]-1,3-dihydro-imidazole-2-thione], the “Intrinsic Activity Alpha 2A” value in experiment [2] is reported as 0.54. In addition, in experiment [3], the “Intrinsic Activity Alpha 2B” value amounted to 1.15.

As to `S=c1[nH]cc(Cc2cccc3ncccc23)[nH]1` [Compound 9, 4-quinolin-5-ylmethyl-1,3-dihydro-imidazole-2-thione], the “Intrinsic Activity Alpha 2B” value in experiment [3] is listed as 0.74.

On to `S=c1[nH]cc(Cc2ccc3ccccc3c2)[nH]1` [Compound 11, 4-naphthalen-2-ylmethyl-1,3-dihydro-imidazole-2-thione], for which, in experiment [3], the “Intrinsic Activity Alpha 2B” value is 0.94.

Take `CC(c1c[nH]c(=S)[nH]1)c1cccc2nsnc12` (stereo not drawn) [Compound-17, 4-(1-benzo[1,2,5]thiadiazol-4-yl-ethyl)-1,3-dihydro-imidazole-2-thione]: the “Intrinsic Activity Alpha 2B” value in experiment [3] was determined as 0.98.

For the compound `Cc1c(C(C)c2c[nH]c(=S)[nH]2)ccc2cccnc12` (stereo not drawn) [Compound-18, 4-[1-(8-methyl-quinolin-7-yl)-ethyl]-1,3-dihydro-imidazole-2-thione], in experiment [1], the “Intrinsic Activity Alpha 2C” value was found to be 0.41. For the same compound, the “Intrinsic Activity Alpha 2A” value in experiment [2] is listed as 0.80. For the same compound, the “Intrinsic Activity Alpha 2B” value in experiment [3] is reported as 1.05.

With `S=c1[nH]cc(Cc2cccc3cccnc23)[nH]1` [Compound 8, 4-quinolin-8-ylmethyl-1,3-dihydro-imidazole-2-thione], the “Intrinsic Activity Alpha 2C” value in experiment [1] is listed as 0.75. Besides, in experiment [2], the “Intrinsic Activity Alpha 2A” value came out at 0.93. Besides, in experiment [3], the “Intrinsic Activity Alpha 2B” value was 1.01.

Take `S=c1[nH]cc(Cc2cccc3c2OCCO3)[nH]1` [Compound 1, 4-(2,3-dihydro-benzo[1,4]dioxin-5-ylmethyl)-1,3-dihydro-imidazole-2-thione]: the “Intrinsic Activity Alpha 2C” value in experiment [1] stood at 0.56. Besides, the “Intrinsic Activity Alpha 2A” value in experiment [2] turned out to be 0.44. Also, the “Intrinsic Activity Alpha 2B” value in experiment [3] came out at 0.94.

In the case of `CC(c1c[nH]c(=S)[nH]1)c1cccc2ccccc12` (stereo not drawn) [Compound 10, 4-(1-naphthalen-1-yl-ethyl)-1,3-dihydro-imidazole-2-thione], the “Intrinsic Activity Alpha 2A” value in experiment [2] stood at 0.52. The “Intrinsic Activity Alpha 2B” value in experiment [3] is recorded as 1.21.

`CC(c1c[nH]c(=S)[nH]1)c1cccc2ncccc12` (single isomer, unassigned; (+)) [Compound 14, (+)-4-(1-quinolin-5-yl-ethyl)-1,3-dihydro-imidazole-2-thione]: the “Intrinsic Activity Alpha 2B” value in experiment [3] was 0.86.

Take `S=c1[nH]cc(Cc2ccc3c(c2)OCO3)[nH]1` [Compound 5, 4-benzo[1,3]dioxol-5-ylmethyl-1,3-dihydro-imidazole-2-thione]: in experiment [3], the “Intrinsic Activity Alpha 2B” value is 1.05.

The values above are taken from US7396849B2, “4-(Condensed cyclicmethyl)-imidazole-2-thiones acting as α2 adrenergic agonists” (Allergan, Inc., priority 2004, dated 2008).
